Each structure is given as a SMILES string.

The results in this text go back to US20110009435A1, “HETERO BICYCLIC CARBOXAMIDE DERIVATIVES AND THEIR PHARMACEUTICAL USE AND COMPOSITIONS” (Pfizer, Inc., priority 2007, published 2011).

What all share (assay type): biochemical
In one test the target is T1, Human recombinant MMP-14 (Homo sapiens, UniProt P50281).
T1 construct: The MMP-14 cDNA may be used to express the catalytic domain enzyme in E. coli inclusion bodies; made in house
Nature of the test: In vitro MMP inhibition assay, MMP-14 catalytic domain (fluorogenic peptide substrate cleavage, Ki). The following applies: human MMP-14, catalytic domain (CD); read-out: hMMP Ki 14/CD. As to the method:
(§1) Matrix Metalloproteinase inhibitor compounds were analyzed in in vitro MMP Inhibition assays to determine their ability to inhibit the MMP cleavage of peptide substrates. Inhibition constants (Ki) were calculated from the assayed compound-MMP interactions.
(§2) Human recombinant MMP-1, MMP-2, MMP-3, MMP-7, MMP-9, MMP-12, MMP-13, MMP-14 and MMP-15 were used in these assays. The enzymes are prepared following known laboratory procedures. Protocols for the preparation and use of these enzymes are available in the scientific literature. See, e.g., Enzyme Nomenclature (Academic Press, San Diego, Calif., 1992) and the citations therein. See also Frije et al., J. Biol. Chem., 26(24), 16766-73 (1994).
The MMP-14 cDNA may be used to express the catalytic domain enzyme in E. coli inclusion bodies. Then the enzyme is solubilized in urea, purified on a preparative […] reverse phase HPLC column, and refolded in the presence of zinc acetate and purified for use.
(§3) The fluorogenic, methoxycoumarin-containing polypeptide substrate MCA-ArgProLeuGlyLeuDpaAlaArgGluArgNH2 was used as the MMP substrate in the MMP inhibition assays for human recombinant MMP-1, MMP-2, MMP-7, MMP-9, MMP-12, MMP-13, MMP-14 and MMP-15. Here, “MCA” is 7-methoxycoumarin-4-yl acetyl and “Dpa” is 3-(2,4-dinitrophenyl)-L-2,3-di-aminopropionyl group. In the absence of MMP inhibitory activity, the substrate is cleaved at the Gly-Leu peptide bond. The cleavage separates the highly fluorogenic peptide from the 2,4-dinitrophenyl quencher, resulting in an increase of fluorescent intensity.
(§4) For the human MMP-1, MMP-2, MMP-7, MMP-9, MMP-12, MMP-13, MMP-14 and MMP-15 assays, dilutions of the inhibitors (or salts thereof) were prepared in 100% dimethyl sulfoxide (DMSO). The stock solutions were diluted in Buffer A (100 mM Tris-HCl, 100 mM NaCl, 10 mM CaCl2, 0.005% polyoxyethylene 23 lauryl ether, pH 7.5) to obtain solutions with different compound concentrations, i.e., assay solutions with different concentrations of the assayed MMP inhibitory compound in 1% DMSO. The experiment controls contained the same amount of Buffer A/DMSO as the assayed sample, but contained no inhibitor.
(§5) To determine Ki, the inhibitor samples are incubated at room temperature for 1 hr in the presence of enzyme and then 4 μM of appropriate MMP substrate was added, and samples were analyzed on a Tecan SpectraFlour Plus plate reader. The excitation wavelength is 330 nm, and the emission (fluorescence) wavelength is 420 nm. In the absence of MMP inhibitory activity, the substrate is cleaved at the Gly-Leu bond resulting in an increase of relative fluorescence. Inhibition is observed as a reduced rate of increase in relative fluorescence.
The inhibitors are analyzed using a single low enzyme concentration with a single substrate concentration fixed at or below the Km. This protocol is a modification of method by Knight et al., FEBS Lett., 296(3), 263-266 (1992). Apparent inhibitory constants are determined by non-linear regression of reaction velocity as a function of inhibitor and enzyme concentration using Morrison's equation, as described by Kuzmic, Anal. Biochem. 286, 45-50 (2000). Modifications were made in the non-linear regression method to allow a common control reaction rate and effective enzyme concentration to be shared between all dose-response relationships on a given assay plate. […]

Test [1] concerns the target T2, catalytic domain of human recombinant MMP-3 (Homo sapiens, UniProt P08254).
T2 construct: made in house
The test can be described thus: In vitro MMP inhibition assay, MMP-3 catalytic domain (fluorogenic peptide substrate cleavage, Ki). The following applies: human MMP-3, catalytic domain (CD); read-out: hMMP Ki 03/CD. As to the method:
as §1, §2
The catalytic domain MMP-3 cDNA may be used to express the catalytic domain enzyme in E. coli inclusion bodies. Then the enzyme is solubilized in urea, purified on a preparative […] reverse phase HPLC column, and refolded in the presence of zinc acetate and purified for use.
The fluorogenic, methoxycoumarin-containing polypeptide substrate Mca-Arg-Pro-Lys-Pro-Val-Glu-Nva-Trp-Arg-Lys(Dnp)-NH2 (Bachem catalog number M-2110) was used as the MMP substrate in the MMP inhibition assays for catalytic domain of human recombinant MMP-3 (which refers to the catalytic domain of stromelysin). Here, “MCA” is 7-methoxycoumarin-4-yl acetyl and “Dpa” is 3-(2,4-dinitrophenyl)-L-2,3-di-aminopropionyl group. In the absence of MMP inhibitory activity, the substrate is cleaved at the Gly-Leu peptide bond. The cleavage separates the highly fluorogenic peptide from the 2,4-dinitrophenyl quencher, resulting in an increase of fluorescent intensity.
For the human MMP-3 assay, dilutions of the inhibitors (or salts thereof) were prepared in 100% DMSO. The stock solutions were diluted in Buffer B (50 mM N-morpholinoethane sulfonate (“MES”), 100 mM NaCl, 10 mM CaCl2, 0.005% polyoxyethylene 23 lauryl ether, pH 6.0)) to obtain solutions with different compound concentrations, i.e., assay solutions with different concentrations of the assayed MMP inhibitory compound in 1% DMSO. The experiment controls contained the same amount of Buffer B/DMSO as the assayed sample, but contained no inhibitor.
as §5
(§6) The inhibitors are analyzed using a single low enzyme concentration with a single substrate concentration fixed at or below the Km. This protocol is a modification of method by Knight et al., FEBS Lett., 296(3), 263-266 (1992). Apparent inhibitory constants are determined by non-linear regression of reaction velocity as a function of inhibitor and enzyme concentration using Morrison's equation, as described by Kuzmic, Anal. Biochem. 286, 45-50 (2000). Modifications were made in the non-linear regression method to allow a common control reaction rate and effective enzyme concentration to be shared between all dose-response relationships on a given assay plate. Since the substrate concentration was chosen to be at or below the Km, the apparent Ki's from this analysis were reported as Ki's without correction for the influence of substrate.

A further test has as its target T3, Human recombinant MMP-12 (Homo sapiens, UniProt P39900).
T3 construct: The catalytic domain of MMP-12 and MMP-15 enzymes were purchased commercially for these assays; purchased
The test can be described thus: In vitro MMP inhibition assay, MMP-12 catalytic domain (fluorogenic peptide substrate cleavage, Ki). The following applies: human MMP-12, catalytic domain (CD); read-out: hMMP Ki 12/CD. As to the method:
as §1, §2
(§7) The catalytic domain of MMP-12 and MMP-15 enzymes were purchased commercially for these assays.
as §3, §4, §5, §6

The next test concerns the target T4, Human recombinant MMP-15 (Homo sapiens, UniProt P51511).
T4 construct: The catalytic domain of MMP-12 and MMP-15 enzymes were purchased commercially for these assays; purchased
Nature of the test: In vitro MMP inhibition assay, MMP-15 catalytic domain (fluorogenic peptide substrate cleavage, Ki). The following applies: human MMP-15, catalytic domain (CD); read-out: hMMP Ki 15/CD. The procedure: as §1, §2, §7, §3, §4, §5, §6

A further test addresses T5, Human recombinant MMP-13 (Homo sapiens, UniProt P45452).
T5 construct: made in house; host or cells: baculovirus expression (insect cells)
Nature of the test: In vitro MMP inhibition assay, MMP-13 (fluorogenic peptide substrate cleavage, Ki). The following applies: human MMP-13, full length (FL); read-out: hMMP Ki 13/FL. As to the method:
as §1, §2
The MMP-13 may be obtained as a proenzyme from a full-length cDNA clone using baculovirus expression, as described by V. A. Luckow, “Insect Cell Expression Technology,” Protein Engineering: Principles and Practice, pp. 183-218 (edited by J. L. Cleland et al., Wiley-Liss, Inc., 1996). The expressed proenzyme was first purified over a heparin agarose column, and then over a chelating zinc chloride column. Further details on baculovirus expression systems may be found in, for example, Luckow et al., J. Virol., 67, 4566-79 (1993). See also O'Reilly et al, Baculovirus Expression Vectors: A Laboratory Manual (W. H. Freeman and Co., New York, N.Y., 1992). See also King et al., The Baculovirus Expression System: A Laboratory Guide (Chapman & Hall, London, England, 1992).
All full length MMPs were activated using 4-aminophenylmercuric acetate (“APMA”, Sigma Chemical, St. Louis, Mo.) or trypsin. MMP-9 also was activated using human recombinant MMP-3 following standard cloning and purification techniques.
as §3, §4, §5
The inhibitors are analyzed using a single low enzyme concentration with a single substrate concentration fixed at or below the Km. This protocol is a modification of method by Knight et al., FEBS Lett., 296(3), 263-266 (1992). Apparent inhibitory constants are determined by non-linear regression of reaction velocity as a function of inhibitor and enzyme concentration using Morrison's equation, as described by Kuzmic, Anal. Biochem. 286, 45-50 (2000). […]

T4 sequence (P51511 132-304 limits assumed): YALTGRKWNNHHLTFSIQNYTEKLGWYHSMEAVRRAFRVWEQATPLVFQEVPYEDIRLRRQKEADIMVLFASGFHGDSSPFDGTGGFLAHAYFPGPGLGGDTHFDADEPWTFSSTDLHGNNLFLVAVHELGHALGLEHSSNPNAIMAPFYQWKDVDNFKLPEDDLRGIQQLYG
T3 sequence (P39900 106-263 limits assumed): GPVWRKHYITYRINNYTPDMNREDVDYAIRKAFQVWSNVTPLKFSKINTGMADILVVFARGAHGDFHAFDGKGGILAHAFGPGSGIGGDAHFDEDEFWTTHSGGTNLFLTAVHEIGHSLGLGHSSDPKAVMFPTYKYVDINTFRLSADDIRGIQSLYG
T2 sequence (P08254 100-272 limits assumed): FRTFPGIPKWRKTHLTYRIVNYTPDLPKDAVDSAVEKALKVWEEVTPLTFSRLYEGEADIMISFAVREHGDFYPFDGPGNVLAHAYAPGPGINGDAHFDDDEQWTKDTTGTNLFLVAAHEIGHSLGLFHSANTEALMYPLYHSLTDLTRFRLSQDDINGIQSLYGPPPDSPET

Regarding `COc1cccc(CNC(=O)c2nc3scc(COC[C@@H]4CO[C@@H](CO)CO4)c3c(=O)[nH]2)c1` (relative stereo) [Example 7, N-(3-Methoxybenzyl)-5-(((trans-5-(hydroxymethyl)-1,4-dioxan-2-yl)methoxy)methyl)-4-oxo-3,4-dihydrothieno[2,3-d]pyrimidine-2-carboxamide], the Ki was greater than 10000 nM on Human recombinant MMP-14; 1640 nM in test [1]; greater than 10000 nM on Human recombinant MMP-12; greater than 10000 nM on Human recombinant MMP-15; 11.4 nM at Human recombinant MMP-13.
With `COc1cc(CNC(=O)c2nc3scc(COC[C@H]4CC[C@H](CO)CC4)c3c(=O)[nH]2)ccc1F` [Example 9, N-(4-Fluoro-3-methoxybenzyl)-5-(((trans-4-(hydroxymethyl)cyclohexyl)methoxy)methyl)-4-oxo-3,4-dihydrothieno[2,3-d]pyrimidine-2-carboxamide], the Ki was greater than 10000 nM at Human recombinant MMP-14; 1350 nM in test [1]; greater than 10000 nM on Human recombinant MMP-12; greater than 10000 nM at Human recombinant MMP-15; 0.88 nM on Human recombinant MMP-13.
On to `COc1cc(CNC(=O)c2nc3scc(COC[C@H]4CC[C@H](NS(C)(=O)=O)CC4)c3c(=O)[nH]2)ccc1F` [Example 18, N-(4-Fluoro-3-methoxybenzyl)-5-[({trans-4-[(methylsulfonyl)amino]cyclohexyl}methoxy)methyl]-4-oxo-3,4-dihydrothieno[2,3-d]pyrimidine-2-carboxamide], for which the Ki was greater than 10000 nM on Human recombinant MMP-14; 1000 nM in test [1]; greater than 10000 nM on Human recombinant MMP-12; greater than 10000 nM on Human recombinant MMP-15; 0.732 nM at Human recombinant MMP-13.
As for `COc1cc(CNC(=O)c2nc3scc(COC[C@H]4CC[C@H](NC(C)=O)CC4)c3c(=O)[nH]2)ccc1F` [Example 19, 5-({[trans-4-(Acetylamino)cyclohexyl]methoxy}methyl)-N-(4-fluoro-3-methoxybenzyl)-4-oxo-3,4-dihydrothieno[2,3-d]pyrimidine-2-carboxamide], the Ki at Human recombinant MMP-14 is greater than 10000 nM; in test [1], 1220 nM; at Human recombinant MMP-12, greater than 10000 nM; on Human recombinant MMP-15, greater than 10000 nM; at Human recombinant MMP-13, 2.48 nM.
